Data published in ChEMBL document CHEMBL4308841, “Synthesis, in vitro antiproliferative activity, and kinase inhibitory effects of pyrazole-containing diarylureas and diarylamides” (Eur J Med Chem, 2018).

How the values were obtained:
[1] = tested on: K562; assay: Growth inhibition of human K562 cells incubated for 48 hrs by sulforhodamine B assay; type: functional, cell-based; settings: K562, 48 h
[2] = tested on: MOLT-4; assay: Growth inhibition of human MOLT4 cells incubated for 48 hrs by sulforhodamine B assay; type: functional, cell-based; settings: MOLT-4, 48 h
[3] = tested on: SF-295; assay: Growth inhibition of human SF295 cells incubated for 48 hrs by sulforhodamine B assay; type: functional, cell-based; settings: SF-295, 48 h
[4] = tested on: MDA-MB-435; assay: Growth inhibition of human MDA-MB-435 cells incubated for 48 hrs by sulforhodamine B assay; type: functional, cell-based; settings: MDA-MB-435, 48 h
[5] = tested on: 786-0; assay: Growth inhibition of human 786-0 cells incubated for 48 hrs by sulforhodamine B assay; type: functional, cell-based; settings: 786-0, 48 h
[6] = tested on: K562; assay: Growth inhibition of human K562 cells assessed as cell growth at 0.01 uM incubated for 48 hrs by sulforhodamine B assay relative to control; type: functional; settings: K562, 48 h, read-out: Activity
[7] = tested on: SF-539; assay: Growth inhibition of human SF539 cells assessed as cell growth at 0.01 uM incubated for 48 hrs by sulforhodamine B assay relative to control; type: functional; settings: SF-539, 48 h, read-out: Activity
[8] = tested on: SNB-19; assay: Growth inhibition of human SNB19 cells assessed as cell growth at 0.01 uM incubated for 48 hrs by sulforhodamine B assay relative to control; type: functional; settings: SNB-19, 48 h, read-out: Activity
[9] = tested on: U-251; assay: Growth inhibition of human U251 cells assessed as cell growth at 0.01 uM incubated for 48 hrs by sulforhodamine B assay relative to control; type: functional; settings: U-251, 48 h, read-out: Activity
[10] = tested on: SK-MEL-28; assay: Growth inhibition of human SK-MEL-28 cells assessed as cell growth at 0.01 uM incubated for 48 hrs by sulforhodamine B assay relative to control; type: functional; settings: SK-MEL-28, 48 h, read-out: Activity
[11] = tested on: MCF7; assay: Growth inhibition of human MCF7 cells assessed as cell growth at 0.01 uM incubated for 48 hrs by sulforhodamine B assay relative to control; type: functional; settings: MCF7, 48 h, read-out: Activity
[12] = tested on: MDA-MB-231; assay: Growth inhibition of human MDA-MB-231 cells assessed as cell growth at 0.01 uM incubated for 48 hrs by sulforhodamine B assay relative to control; type: functional; settings: MDA-MB-231, 48 h, read-out: Activity
[13] = tested on: BT-549; assay: Growth inhibition of human BT549 cells assessed as cell growth at 0.01 uM incubated for 48 hrs by sulforhodamine B assay relative to control; type: functional; settings: BT-549, 48 h, read-out: Activity
[14] = tested on: Malme-3M; assay: Growth inhibition of human MALME-3M cells assessed as cell growth at 0.1 uM incubated for 48 hrs by sulforhodamine B assay relative to control; type: functional; settings: read-out: Activity
[15] = tested on: OVCAR-4; assay: Growth inhibition of human OVCAR4 cells assessed as cell growth at 0.1 uM incubated for 48 hrs by sulforhodamine B assay relative to control; type: functional; settings: OVCAR-4, 48 h, read-out: Activity
[16] = tested on: UO-31; assay: Growth inhibition of human UO31 cells assessed as cell growth at 0.1 uM incubated for 48 hrs by sulforhodamine B assay relative to control; type: functional; settings: UO-31, 48 h, read-out: Activity
[17] = tested on: RPMI-8226; assay: Growth inhibition of human RPMI8226 cells assessed as cell growth at 1 uM incubated for 48 hrs by sulforhodamine B assay relative to control; type: functional; settings: RPMI-8226, 48 h, read-out: Activity
[18] = tested on: NCI-H226; assay: Growth inhibition of human NCI-H226 cells assessed as cell growth at 1 uM incubated for 48 hrs by sulforhodamine B assay relative to control; type: functional; settings: NCI-H226, 48 h, read-out: Activity
[19] = tested on: NCI-H522; assay: Growth inhibition of human NCI-H522 cells assessed as cell growth at 1 uM incubated for 48 hrs by sulforhodamine B assay relative to control; type: functional; settings: NCI-H522, 48 h, read-out: Activity
[20] = tested on: SF-268; assay: Growth inhibition of human SF268 cells assessed as cell growth at 1 uM incubated for 48 hrs by sulforhodamine B assay relative to control; type: functional; settings: SF-268, 48 h, read-out: Activity
[21] = tested on: SF-295; assay: Growth inhibition of human SF295 cells assessed as cell growth at 1 uM incubated for 48 hrs by sulforhodamine B assay relative to control; type: functional; settings: SF-295, 48 h, read-out: Activity
[22] = tested on: NCI/ADR-RES; assay: Growth inhibition of human NCI/ADR-RES cells assessed as cell growth at 1 uM incubated for 48 hrs by sulforhodamine B assay relative to control; type: functional; settings: read-out: Activity
[23] = tested on: SK-OV-3; assay: Growth inhibition of human SKOV3 cells assessed as cell growth at 1 uM incubated for 48 hrs by sulforhodamine B assay relative to control; type: functional; settings: SK-OV-3, 48 h, read-out: Activity
[24] = tested on: T47D; assay: Growth inhibition of human T47D cells assessed as cell growth at 1 uM incubated for 48 hrs by sulforhodamine B assay relative to control; type: functional; settings: read-out: Activity
[25] = tested on: HCT-15; assay: Growth inhibition of human HCT15 cells assessed as cell growth at 100 uM incubated for 48 hrs by sulforhodamine B assay relative to control; type: functional; settings: HCT-15, 48 h, read-out: Activity
[26] = tested on: SF-295; assay: Growth inhibition of human SF295 cells assessed as cell growth at 100 uM incubated for 48 hrs by sulforhodamine B assay relative to control; type: functional; settings: SF-295, 48 h, read-out: Activity
[27] = tested on: SNB-75; assay: Growth inhibition of human SNB75 cells assessed as cell growth at 100 uM incubated for 48 hrs by sulforhodamine B assay relative to control; type: functional; settings: SNB-75, 48 h, read-out: Activity
[28] = tested on: NCI/ADR-RES; assay: Growth inhibition of human NCI/ADR-RES cells assessed as cell growth at 100 uM incubated for 48 hrs by sulforhodamine B assay relative to control; type: functional; settings: read-out: Activity
[29] = tested on: SK-OV-3; assay: Growth inhibition of human SKOV3 cells assessed as cell growth at 100 uM incubated for 48 hrs by sulforhodamine B assay relative to control; type: functional; settings: SK-OV-3, 48 h, read-out: Activity
[30] = tested on: LOX IMVI; assay: Growth inhibition of human LOXIMVI cells assessed as cell growth at 0.1 uM incubated for 48 hrs by sulforhodamine B assay relative to control; type: functional; settings: read-out: Activity
[31] = read-out: LC50 (the source's name)
[32] = read-out: pLC50 (the source's name) (converted)

SMILES: COc1cc(Cl)cc(-c2nn(-c3cccc(NC(=O)Nc4cc(C(F)(F)F)cc(C(F)(F)F)c4)c3)cc2-c2ccncc2)c1
- IC50 [1]: 350 nM
- GI50 ([1]; read-out: GI50): 351 nM
- LC50 ([1]; read-out: LC50): > 100000 nM
- TGI ([1]; read-out: TGI): 5840 nM
- GI50 ([1]; read-out: pGI50 (converted)): 355 nM
- LC50 ([1]; read-out: pLC50 (converted)): > 100000 nM
- TGI ([1]; read-out: pTGI (converted)): 5890 nM
- IC50 [2]: 310 nM
- GI50 ([2]; read-out: GI50): 306 nM
- CC50 [2, 31]: > 100000 nM
- TGI ([2]; read-out: TGI): 1640 nM
- GI50 ([2]; read-out: pGI50 (converted)): 302 nM
- CC50 [2, 32]: > 100000 nM
- TGI ([2]; read-out: pTGI (converted)): 1620 nM
- IC50 [3]: 330 nM
- GI50 ([3]; read-out: GI50): 332 nM
- CC50 [3, 31]: 63.7 nM
- TGI ([3]; read-out: TGI): 1440 nM
- GI50 ([3]; read-out: pGI50 (converted)): 331 nM
- CC50 [3, 32]: 6310 nM
- TGI ([3]; read-out: pTGI (converted)): 1450 nM
- IC50 [4]: 430 nM
- GI50 ([4]; read-out: GI50): 425 nM
- LC50 ([4]; read-out: LC50): 11.5 nM
- TGI ([4]; read-out: TGI): 2030 nM
- GI50 ([4]; read-out: pGI50 (converted)): 427 nM
- LC50 ([4]; read-out: pLC50 (converted)): 11700 nM
- TGI ([4]; read-out: pTGI (converted)): 2040 nM
- IC50 [5]: 570 nM
- GI50 ([5]; read-out: GI50): 558 nM
- CC50 [5, 31]: 63.1 nM
- TGI ([5]; read-out: TGI): 2170 nM
- GI50 ([5]; read-out: pGI50 (converted)): 562 nM
- CC50 [5, 32]: 6310 nM
- TGI ([5]; read-out: pTGI (converted)): 2190 nM
- growth at 0.01 µM [6]: 97%
- growth at 0.01 µM [7]: 100%
- growth at 0.01 µM [8]: 89%
- growth at 0.01 µM [9]: 96%
- growth at 0.01 µM [10]: 103%
- growth at 0.01 µM [11]: 58%
- growth at 0.01 µM [12]: 97%
- growth at 0.01 µM [13]: 94%
- growth at 0.1 µM [14]: 87%
- growth at 0.1 µM [15]: 97%
- growth at 0.1 µM [16]: 75%
- growth at 1 µM [17]: -12%
- growth at 1 µM [18]: 41%
- growth at 1 µM [19]: 18%
- growth at 1 µM [20]: 37%
- growth at 1 µM [21]: 12%
- growth at 1 µM [22]: 48%
- growth at 1 µM [23]: 43%
- growth at 1 µM [24]: 15%
- growth at 100 µM [25]: -83%
- growth at 100 µM [26]: -63%
- growth at 100 µM [27]: -58%
- growth at 100 µM [28]: -12%
- growth at 100 µM [29]: -73%

SMILES: COc1cc(Cl)cc(-c2nn(-c3cccc(NC(=O)Nc4ccc(Cl)c(Cl)c4)c3)cc2-c2ccncc2)c1
- GI50 ([1]; read-out: GI50): 1000 nM
- LC50 ([1]; read-out: LC50): > 100000 nM
- TGI ([1]; read-out: TGI): > 100000 nM
- GI50 ([1]; read-out: pGI50 (converted)): 1950 nM
- LC50 ([1]; read-out: pLC50 (converted)): > 100000 nM
- TGI ([1]; read-out: pTGI (converted)): > 100000 nM
- GI50 ([2]; read-out: GI50): 1590 nM
- CC50 [2, 31]: > 100000 nM
- TGI ([2]; read-out: TGI): 61300 nM
- GI50 ([2]; read-out: pGI50 (converted)): 1700 nM
- CC50 [2, 32]: > 100000 nM
- TGI ([2]; read-out: pTGI (converted)): 6170 nM
- GI50 ([3]; read-out: GI50): 1370 nM
- CC50 [3, 31]: > 100000 nM
- TGI ([3]; read-out: TGI): 72100 nM
- GI50 ([3]; read-out: pGI50 (converted)): 1780 nM
- CC50 [3, 32]: > 100000 nM
- TGI ([3]; read-out: pTGI (converted)): 7240 nM
- GI50 ([4]; read-out: GI50): 2060 nM
- LC50 ([4]; read-out: LC50): > 100000 nM
- TGI ([4]; read-out: TGI): 60000 nM
- GI50 ([4]; read-out: pGI50 (converted)): 2090 nM
- LC50 ([4]; read-out: pLC50 (converted)): > 100000 nM
- TGI ([4]; read-out: pTGI (converted)): 6030 nM
- GI50 ([5]; read-out: GI50): 2310 nM
- CC50 [5, 31]: > 100000 nM
- TGI ([5]; read-out: TGI): 75400 nM
- GI50 ([5]; read-out: pGI50 (converted)): 2290 nM
- CC50 [5, 32]: > 100000 nM
- TGI ([5]; read-out: pTGI (converted)): 7760 nM
- growth at 0.01 µM [6]: 101%
- growth at 0.01 µM [7]: 100%
- growth at 0.01 µM [8]: 92%
- growth at 0.01 µM [9]: 95%
- growth at 0.01 µM [10]: 101%
- growth at 0.01 µM [11]: 94%
- growth at 0.01 µM [12]: 109%
- growth at 0.01 µM [13]: 96%
- growth at 0.1 µM [30]: 94%
- growth at 0.1 µM [14]: 50%
- growth at 0.1 µM [15]: 95%
- growth at 1 µM [17]: 39%
- growth at 1 µM [18]: 82%
- growth at 1 µM [19]: 60%
- growth at 1 µM [20]: 88%
- growth at 1 µM [21]: 70%
- growth at 1 µM [22]: 78%
- growth at 1 µM [23]: 100%
- growth at 1 µM [24]: 87%
- growth at 100 µM [25]: -9%
- growth at 100 µM [26]: -21%
- growth at 100 µM [27]: -3%
- growth at 100 µM [28]: -3%
